# Laboratory results: patent US20190049436A1, “MODULATION OF ASYMMETRIC PROLIFERATION” (THE GENERAL HOSPITAL CORPORATION, priority 2012, published 2019)
# Entries after “also recorded” stand apart in the source; their conditions may differ.
# Key:
# HCT116 cells [1] = assay: Confocal immunofluorescence scoring of asymmetrically dividing and G0-like (H3K9me2low/MCM2low/HES1high) cells; type: cell-based, human; settings: HCT116; small molecule for 72 h at the single dose (low, non-antiproliferative or target-suppressing); vs DMSO control
# Protocol: (§1) Drug treatment in vitro. Cells were seeded onto collagen IV-coated coverslips, allowed to attach overnight, and treated with vehicle (DMSO) or AKT1/2 inhibitor (HCT116: 20μM; MCF7: 2 μM) (Sigma), MK2206 (HCT116: 10 μM; MCF7: 3 μM) (Selleck Chemicals), TORIN1 (HCT116: 0.5 μM; MCF7: 0.25 μM) (Tocris Bioscience), AZD8055 (HCT116: 0.7 μM; MCF7: 0.1 μM) (Selleck Chemicals), INK128 (HCT116: 0.05 μM; MCF7: 0.01 μM) (Active Biochem), Palomid 529 (HCT116: 10 μM; MCF7: 20 μM) (Selleck Chemicals), (Rapamycin (HCT116: 20 μM; MCF7: 20 μM)(Sigma), RAD-001 (HCT116: 10 μM; MCF7: 5 μM) (Selleck Chemicals), (AZD5363 (HCT116: 50 μM; MCF7: 5 μM) (Active Biochem), GDC0068 (HCT116: 50 μM; MCF7: 5 μM) (Active Biochem) for 72 h and Bortezemib (HCT116: 1 μM; MCF7: 4 μM) (Selleck Chemicals) MG-132 (vehicle: ethanol) (HCT116: 1 μM; MCF7: 10 μM), for 24 h.
# (§2) Immunofluorescence staining. For bulk populations and for colonies, cells were grown directly on collagen IV-coated coverslips (Sigma). Cells were fixed in 3.7% formalin, permeabilized using 0.1% Triton X-100, and treated with 0.1% SDS. They were blocked in 1% BSA and then incubated with primary antibody (α-H3K9me2 (Abcam); α-MCM2 and α-Tubulin (Cell Signaling), α-Hes1 and α-TTC3 (Abnova)) diluted in blocking solution, washed, and incubated with the respective secondary antibody. Cells were mounted using hard-set mounting media containing DAPI (Vector Laboratories). All secondary antibodies were Alexa Fluor conjugates (488, 555, 568, 633, and 647) (Invitrogen). Immunofluorescence imaging (on a Nikon Eclipse Ti A1R-A1 confocal microscope) and live-cell imaging (on the Nikon Biostation CT platform) were performed as previously described (1).
# (§3) Drug treatment in vitro. Cells were seeded onto collagen IV-coated coverslips, allowed to attach overnight, and treated with vehicle (DMSO) or AKT1/2 inhibitor (HCT116: 20 μM; MCF7: 2 μM) (Sigma), MK2206 (HCT116: 10 μM; MCF7: 3 μM) (Selleck Chemicals), TORIN1 (HCT116: 0.5 μM; MCF7: 0.25 μM) (Tocris Bioscience), AZD8055 (HCT116: 0.7 μM; MCF7: 0.1 μM) (Selleck Chemicals), INK128 (HCT116: 0.05 μM; MCF7: 0.01 μM) (Active Biochem), Palomid 529 (HCT116: 10 μM; MCF7: 20 μM) (Selleck Chemicals), (Rapamycin (HCT116: 20 μM; MCF7: 20 μM)(Sigma), RAD-001 (HCT116: 10 μM; MCF7: 5 μM) (Selleck Chemicals), BKM-120 (HCT116: 1.5 μM; MCF7: 0.5 μM) (Active Biochem), FAK inhibitors (PF-562271: 1 μM Pfizer) and NVP-TAE226 : 1 μM (Novartis), for both cell lines) for 72 h and Bortezemib (HCT116: 1 μM; MCF7: 4 μM) (Selleck Chemicals) MG-132 (vehicle: ethanol) (HCT116: 1 μM; MCF7: 10 μM), for 24 h.
# as §2, with “(a-H3K9me2” for “(α-H3K9me2”, “A1R-A1™” for “A1R-A1”, “described7. Slides coated with Type-I collagen (control) and AlignCol™ woven with large collagen fibers (100-200 nm) (Advanced Biomatrix) were incubated for 1 hour in 70% ethanol and then washed with PBS. Cells were then plated on the slides and processed for immunofluorescence.” for “described (1).”
# (§4) Antibody activation and inhibition. […]
# MCF7 cells [2] = assay: as above; type: cell-based, human; settings: MCF7; small molecule for 72 h at the single dose (low, non-antiproliferative or target-suppressing); vs DMSO control
# Protocol: as §1, §2, §3
# as §2, with “(a-H3K9me2” for “(α-H3K9me2”, “A1R-A1™” for “A1R-A1”, “described7. Slides coated with Type-I collagen (control) and AlignCol™ woven with large collagen fibers (100-200 nm) (Advanced Biomatrix) were incubated for 1 hour in 70% ethanol and then washed with PBS. Cells were then plated on the slides and processed for immunofluorescence.” for “described (1).”
# as §4
# HCT116 cells [3] = assay: Tumor formation in nude mice by cells pre-treated ex vivo with AKT1/2 inhibitor
# Protocol: (§5) Xenografting & tumor propagation in vivo. For in vivo RICTOR knockdown experiments, 5×10^5 cells (MCF7, HCT116, A375, PC9, MDA-MB-231 cell lines) carrying either doxycycline-inducible non-silencing or RICTOR-targeting shRNAs (120392, 225915) were injected subcutaneously into the flanks of 5-6 week old, female nude mice. The mice were given doxycycline in water at 20 mg/ml for hairpin induction. For induction of asymmetrically dividing cells and slow proliferators, cells were treated with AKT1/2 inhibitor and DMSO (vehicle) for 72 h and were harvested at 60-70% confluence, and then counted and washed twice in PBS and resuspended in 1:1 Media: Matrigel (BD Biosciences). 5×10^6, 5×10^5, 5×10^4, 5×10^3 and 5×10^2 cells respectively were injected subcutaneously into the flanks of 5-6 week old, female nude mice (Nude/Nude) (Charles River Labs). For all experiments, growing tumors were measured weekly by caliper, and mice were killed after the tumor size reached 1 cm^3. Mouse experiments were carried out under a Massachusetts General Hospital Institutional Review Board-approved protocol.
# (§6) Tumor studies in vivo. For TS2/16 antibody treatment studies in vivo, we injected 5×10^5 cells (A375, MDA-MB-231, PC9, HCT116, MCF7) subcutaneously into the flanks of 5-6 week old, female nude mice (Nude/Nude) (Charles River Labs). Once the tumors were palpable, mice were injected i.p. with TS2/16 ([…] at 4 mg/ml/wk×5 weeks) and the tumors were measured. For RICTOR knockdown experiments in vivo, we injected 5×10^5 cells (A375, MDA-MB-231, PC9, HCT116, MCF7) carrying either doxycycline-inducible non-silencing or RICTOR-targeting shRNAs (120392, 225915) subcutaneously into the flanks of 5-6 week old, female nude mice (Nude/Nude). The mice were given doxycycline in water at 20 mg/ml for hairpin induction starting immediately after implantation. For induction of slow proliferators, cells were treated with AKT1/2 inhibitor and DMSO (vehicle) for 72 h and were harvested at 60-70% confluence, and then counted and washed twice in PBS and resuspended in 1:1 Media: Matrigel (BD Biosciences). We then injected 5×106, 5×105, and 5×10^4 cells respectively subcutaneously into the flanks of 5-6 week old, female nude mice. For all experiments, growing tumors were measured weekly by caliper, and mice were killed when tumors reached approximately 1 cm3 in size. Animal experiments were carried out under a Massachusetts General Hospital Institutional Review Board-approved protocol.
# MCF7 cells [4] = assay: as above
# Protocol: as §5, §6
# cancer cells = settings: cited from earlier work
smiles,measurement,setting,value
O=c1[nH]c2ccccc2n1C1CCN(Cc2ccc(-c3nc4cc5[nH]cnc5cc4nc3-c3ccccc3)cc2)CC1 [AKT1/2],frequency of asymmetrically dividing and G0-like cells,HCT116 cells [1],dramatically increases
same,frequency of asymmetrically dividing and G0-like cells,MCF7 cells [2],dramatically increases
same,"tumor size, larger on average than tumors from untreated cell populations","HCT116 cells [3]; HCT116 pre-treated 72 h, implanted in nude mice",50%
same,engraftment,"HCT116 cells [3]; HCT116 pre-treated 72 h with low dose, implanted s.c. in nude mice over a range of cell numbers, vs DMSO-treated cells",significantly increased; also recorded: significantly promoted
same,tumor size over time,"HCT116 cells [3]; HCT116 pre-treated with low dose ex vivo, s.c. in nude mice, 100-fold cell number range",notably larger
same,"tumor size, larger on average than tumors from untreated cell populations","MCF7 cells [4]; MCF7 pre-treated 72 h, implanted in nude mice",50%
same,engraftment,"MCF7 cells [4]; MCF7 pre-treated 72 h with low dose, implanted s.c. in nude mice over a range of cell numbers, vs DMSO-treated cells",significantly increased; also recorded: significantly promoted
same,tumor size over time,"MCF7 cells [4]; MCF7 pre-treated with low dose ex vivo, s.c. in nude mice, 100-fold cell number range",notably larger
same,effect on cancer cells at higher doses,cancer cells,kills cancer cells
